In ChEMBL document CHEMBL1134903, “Synthesis and SAR of azalide 3,6-ketal aromatic derivatives as potent Gram-positive and Gram-negative antibacterial agents” (Bioorg Med Chem Lett, 2002):
Converted amounts (≈) assume the structure as drawn.

What was measured:
Format in all cases: functional
Escherichia coli = assay: Minimum inhibitory concentration against Escherichia coli
Pasteurella multocida = assay: Minimum inhibitory concentration against Pasteurella multocida
Staphylococcus aureus [1] = assay: Colony forming units of Staphylococcus aureus intramammary infection (IMI) model was determined at a dose of 15 mg/kg
Staphylococcus aureus [2] = assay: Effective dose required to inhibit Staphylococcus aureus intraperitoneal (IP) infection model
Staphylococcus aureus [3] = assay: Minimum inhibitory concentration against Staphylococcus aureus

SMILES	MIC (Escherichia coli) [µg/mL]	MIC (Pasteurella multocida) [µg/mL]	Log CFU (Staphylococcus aureus [1])	ED50 (Staphylococcus aureus [2]) [mg/kg]	MIC (Staphylococcus aureus [3]) [µg/mL]	MIC (Staphylococcus aureus [2]) [µg/mL]
CC[C@H]1OC(=O)[C@H](C)[C@H]2OC3(CCN(C(=O)c4ccc5ccccc5n4)CC3)O[C@](C)(C[C@@H](C)CN[C@H](C)[C@@H](O)[C@]1(C)O)[C@H](O[C@@H]1O[C@H](C)C[C@H](N(C)C)[C@H]1O)[C@H]2C	1.56 (≈ 1.92 µM)	0.05 (≈ 0.0615 µM)	1.9	14	0.2 (≈ 0.246 µM)	–
CC[C@H]1OC(=O)[C@H](C)[C@H]2OC3(CCN(CCc4ccc(Cl)c(Cl)c4)CC3)O[C@](C)(C[C@@H](C)CN(C)[C@H](C)[C@@H](O)[C@]1(C)O)[C@H](O[C@@H]1O[C@H](C)C[C@H](N(C)C)[C@H]1O)[C@H]2C	50 (≈ 59.2 µM)	0.05 (≈ 0.0592 µM)	–	–	0.2 (≈ 0.237 µM)	–
CC[C@H]1OC(=O)[C@H](C)[C@H]2OC3(CCNCC3)O[C@](C)(C[C@@H](C)CN(C)[C@H](C)[C@@H](O)[C@]1(C)O)[C@H](O[C@@H]1O[C@H](C)C[C@H](N(C)C)[C@H]1O)[C@H]2C	0.2 (≈ 0.298 µM)	0.05 (≈ 0.0744 µM)	–	–	6.25 (≈ 9.3 µM)	–
CC[C@H]1OC(=O)[C@H](C)[C@H]2OC3(CCN(CCc4ccccc4)CC3)O[C@](C)(C[C@@H](C)CN(C)[C@H](C)[C@@H](O)[C@]1(C)O)[C@H](O[C@@H]1O[C@H](C)C[C@H](N(C)C)[C@H]1O)[C@H]2C	0.075 (≈ 0.0966 µM)	0.02 (≈ 0.0258 µM)	7.3	> 20	–	–
CC[C@H]1OC(=O)[C@H](C)[C@H]2OC3(CCN(CCc4cccc(OC)c4)CC3)O[C@](C)(C[C@@H](C)CN(C)[C@H](C)[C@@H](O)[C@]1(C)O)[C@H](O[C@@H]1O[C@H](C)C[C@H](N(C)C)[C@H]1O)[C@H]2C	0.2 (≈ 0.248 µM)	0.03 (≈ 0.0372 µM)	–	> 20	0.6 (≈ 0.744 µM)	–
CC[C@H]1OC(=O)[C@H](C)[C@H]2OC3(CCN(C(=O)c4cnc5ccccc5c4)CC3)O[C@](C)(C[C@@H](C)CN(C)[C@H](C)[C@@H](O)[C@]1(C)O)[C@H](O[C@@H]1O[C@H](C)C[C@H](N(C)C)[C@H]1O)[C@H]2C	6.25 (≈ 7.56 µM)	0.1 (≈ 0.121 µM)	–	> 20	0.39 (≈ 0.472 µM)	–
CC[C@H]1OC(=O)[C@H](C)[C@H]2OC3(CCN(CCc4ccc(C#N)cc4)CC3)O[C@](C)(C[C@@H](C)CN(C)[C@H](C)[C@@H](O)[C@]1(C)O)[C@H](O[C@@H]1O[C@H](C)C[C@H](N(C)C)[C@H]1O)[C@H]2C	0.39 (≈ 0.487 µM)	0.03 (≈ 0.0374 µM)	–	22	0.78 (≈ 0.974 µM)	–
CC[C@H]1OC(=O)[C@H](C)[C@H]2OC3(CCN(CCc4cccc(OC)c4)CC3)O[C@](C)(C[C@@H](C)CN[C@H](C)[C@@H](O)[C@]1(C)O)[C@H](O[C@@H]1O[C@H](C)C[C@H](N(C)C)[C@H]1O)[C@H]2C	0.3 (≈ 0.379 µM)	0.03 (≈ 0.0379 µM)	–	–	0.39 (≈ 0.492 µM)	–
CC[C@H]1OC(=O)[C@H](C)[C@H]2OC3(CCN(CCc4ccccc4)CC3)O[C@](C)(C[C@@H](C)CN[C@H](C)[C@@H](O)[C@]1(C)O)[C@H](O[C@@H]1O[C@H](C)C[C@H](N(C)C)[C@H]1O)[C@H]2C	0.1 (≈ 0.131 µM)	0.03 (≈ 0.0394 µM)	–	> 20	0.39 (≈ 0.512 µM)	–
CC[C@H]1OC(=O)[C@H](C)[C@H]2OC3(CCN(C(=O)c4ccc(-c5ccccc5)cc4)CC3)O[C@](C)(C[C@@H](C)CN[C@H](C)[C@@H](O)[C@]1(C)O)[C@H](O[C@@H]1O[C@H](C)C[C@H](N(C)C)[C@H]1O)[C@H]2C	6.25 (≈ 7.46 µM)	0.2 (≈ 0.239 µM)	–	–	0.78 (≈ 0.931 µM)	–
CC[C@H]1OC(=O)[C@H](C)[C@H]2OC3(CCN(C(=O)c4c[nH]c5ccccc45)CC3)O[C@](C)(C[C@@H](C)CN[C@H](C)[C@@H](O)[C@]1(C)O)[C@H](O[C@@H]1O[C@H](C)C[C@H](N(C)C)[C@H]1O)[C@H]2C	6.25 (≈ 7.8 µM)	0.1 (≈ 0.125 µM)	–	11	0.39 (≈ 0.487 µM)	–
CC[C@H]1OC(=O)[C@H](C)[C@H]2OC3(CCN(CCc4ccnc5ccccc45)CC3)O[C@](C)(C[C@@H](C)CN[C@H](C)[C@@H](O)[C@]1(C)O)[C@H](O[C@@H]1O[C@H](C)C[C@H](N(C)C)[C@H]1O)[C@H]2C	1.56 (≈ 1.92 µM)	0.05 (≈ 0.0615 µM)	–	> 20	0.2 (≈ 0.246 µM)	–
CC[C@H]1OC(=O)[C@H](C)[C@H]2OC3(CCN(C(=O)c4cc5ccccc5[nH]4)CC3)O[C@](C)(C[C@@H](C)CN[C@H](C)[C@@H](O)[C@]1(C)O)[C@H](O[C@@H]1O[C@H](C)C[C@H](N(C)C)[C@H]1O)[C@H]2C	3.13 (≈ 3.91 µM)	0.1 (≈ 0.125 µM)	–	> 20	0.78 (≈ 0.974 µM)	–
CC[C@H]1OC(=O)[C@H](C)[C@H]2OC3(CCN(C(=O)c4cncc(Cl)c4Cl)CC3)O[C@](C)(C[C@@H](C)CN[C@H](C)[C@@H](O)[C@]1(C)O)[C@H](O[C@@H]1O[C@H](C)C[C@H](N(C)C)[C@H]1O)[C@H]2C	3.13 (≈ 3.76 µM)	0.1 (≈ 0.12 µM)	–	> 20	3.13 (≈ 3.76 µM)	–
CC[C@H]1OC(=O)[C@H](C)[C@H]2OC3(CCN(Cc4cccnc4)CC3)O[C@](C)(C[C@@H](C)CN(C)[C@H](C)[C@@H](O)[C@]1(C)O)[C@H](O[C@@H]1O[C@H](C)C[C@H](N(C)C)[C@H]1O)[C@H]2C	0.39 (≈ 0.511 µM)	0.03 (≈ 0.0393 µM)	–	> 20	0.78 (≈ 1.02 µM)	–
CC[C@H]1OC(=O)[C@H](C)[C@H]2OC3(CCN(CCc4ccoc4)CC3)O[C@](C)(C[C@@H](C)CN(C)[C@H](C)[C@@H](O)[C@]1(C)O)[C@H](O[C@@H]1O[C@H](C)C[C@H](N(C)C)[C@H]1O)[C@H]2C	0.2 (≈ 0.261 µM)	0.03 (≈ 0.0392 µM)	–	–	–	–
CC[C@H]1OC(=O)[C@H](C)[C@H]2OC3(CCN(Cc4ccc(-c5ccccc5)cc4)CC3)O[C@](C)(C[C@@H](C)CN(C)[C@H](C)[C@@H](O)[C@]1(C)O)[C@H](O[C@@H]1O[C@H](C)C[C@H](N(C)C)[C@H]1O)[C@H]2C	1.56 (≈ 1.86 µM)	0.1 (≈ 0.119 µM)	–	> 20	0.2 (≈ 0.239 µM)	–
CC[C@H]1OC(=O)[C@H](C)[C@H]2OC3(CCN(CCc4ccccc4OC)CC3)O[C@](C)(C[C@@H](C)CN(C)[C@H](C)[C@@H](O)[C@]1(C)O)[C@H](O[C@@H]1O[C@H](C)C[C@H](N(C)C)[C@H]1O)[C@H]2C	0.1 (≈ 0.124 µM)	0.03 (≈ 0.0372 µM)	–	> 20	0.39 (≈ 0.484 µM)	–
CC[C@H]1OC(=O)[C@H](C)[C@H]2OC3(CCN(CCc4ccc(Cl)cc4)CC3)O[C@](C)(C[C@@H](C)CN[C@H](C)[C@@H](O)[C@]1(C)O)[C@H](O[C@@H]1O[C@H](C)C[C@H](N(C)C)[C@H]1O)[C@H]2C	0.2 (≈ 0.251 µM)	0.01 (≈ 0.0126 µM)	–	–	–	–
CC[C@H]1OC(=O)[C@H](C)[C@H]2OC3(CCN(CCc4ccc(Cl)c(Cl)c4)CC3)O[C@](C)(C[C@@H](C)CN[C@H](C)[C@@H](O)[C@]1(C)O)[C@H](O[C@@H]1O[C@H](C)C[C@H](N(C)C)[C@H]1O)[C@H]2C	3.13 (≈ 3.77 µM)	0.05 (≈ 0.0602 µM)	–	–	0.39 (≈ 0.469 µM)	–
CC[C@H]1OC(=O)[C@H](C)[C@H]2OC3(CCN(C(=O)c4ccccc4)CC3)O[C@](C)(C[C@@H](C)CN(C)[C@H](C)[C@@H](O)[C@]1(C)O)[C@H](O[C@@H]1O[C@H](C)C[C@H](N(C)C)[C@H]1O)[C@H]2C	3.13 (≈ 4.03 µM)	0.1 (≈ 0.129 µM)	–	–	–	–
CC[C@H]1OC(=O)[C@H](C)[C@H]2OC3(CCN(C(=O)c4cccs4)CC3)O[C@](C)(C[C@@H](C)CN(C)[C@H](C)[C@@H](O)[C@]1(C)O)[C@H](O[C@@H]1O[C@H](C)C[C@H](N(C)C)[C@H]1O)[C@H]2C	1.56 (≈ 1.99 µM)	0.05 (≈ 0.0639 µM)	–	–	–	> 20
CC[C@H]1OC(=O)[C@H](C)[C@H]2OC3(CCN(CCc4ccnc5ccccc45)CC3)O[C@](C)(C[C@@H](C)CN(C)[C@H](C)[C@@H](O)[C@]1(C)O)[C@H](O[C@@H]1O[C@H](C)C[C@H](N(C)C)[C@H]1O)[C@H]2C	1.56 (≈ 1.89 µM)	0.05 (≈ 0.0605 µM)	–	> 20	0.39 (≈ 0.472 µM)	–
CC[C@H]1OC(=O)[C@H](C)[C@H]2OC3(CCN(Cc4ccncc4)CC3)O[C@](C)(C[C@@H](C)CN[C@H](C)[C@@H](O)[C@]1(C)O)[C@H](O[C@@H]1O[C@H](C)C[C@H](N(C)C)[C@H]1O)[C@H]2C	0.78 (≈ 1.04 µM)	0.03 (≈ 0.0401 µM)	–	6.4	1.56 (≈ 2.08 µM)	–
CC[C@H]1OC(=O)[C@H](C)[C@H]2OC3(CCN(CCc4ccc(OC)cc4)CC3)O[C@](C)(C[C@@H](C)CN[C@H](C)[C@@H](O)[C@]1(C)O)[C@H](O[C@@H]1O[C@H](C)C[C@H](N(C)C)[C@H]1O)[C@H]2C	0.2 (≈ 0.253 µM)	0.01 (≈ 0.0126 µM)	–	–	0.2 (≈ 0.253 µM)	–
CC[C@H]1OC(=O)[C@H](C)[C@H]2OC3(CCN(CCc4ccc5ccccc5n4)CC3)O[C@](C)(C[C@@H](C)CN(C)[C@H](C)[C@@H](O)[C@]1(C)O)[C@H](O[C@@H]1O[C@H](C)C[C@H](N(C)C)[C@H]1O)[C@H]2C	0.78 (≈ 0.943 µM)	0.03 (≈ 0.0363 µM)	–	> 20	0.39 (≈ 0.472 µM)	–
CC[C@H]1OC(=O)[C@H](C)[C@H]2OC3(CCN(C(=O)c4ccco4)CC3)O[C@](C)(C[C@@H](C)CN(C)[C@H](C)[C@@H](O)[C@]1(C)O)[C@H](O[C@@H]1O[C@H](C)C[C@H](N(C)C)[C@H]1O)[C@H]2C	0.78 (≈ 1.02 µM)	0.05 (≈ 0.0653 µM)	3.3	> 20	–	–
CC[C@H]1OC(=O)[C@H](C)[C@H]2OC3(CCN(CCc4ccc(NC(C)=O)cc4)CC3)O[C@](C)(C[C@@H](C)CN(C)[C@H](C)[C@@H](O)[C@]1(C)O)[C@H](O[C@@H]1O[C@H](C)C[C@H](N(C)C)[C@H]1O)[C@H]2C	0.39 (≈ 0.468 µM)	0.05 (≈ 0.06 µM)	9.7	9.6	–	–
CC[C@H]1OC(=O)[C@H](C)[C@H]2OC3(CCN(CCc4ccccc4OC)CC3)O[C@](C)(C[C@@H](C)CN[C@H](C)[C@@H](O)[C@]1(C)O)[C@H](O[C@@H]1O[C@H](C)C[C@H](N(C)C)[C@H]1O)[C@H]2C	0.1 (≈ 0.126 µM)	0.03 (≈ 0.0379 µM)	–	–	0.39 (≈ 0.492 µM)	–
CC[C@H]1OC(=O)[C@H](C)[C@H]2OC3(CCN(C(=O)c4occc4C)CC3)O[C@](C)(C[C@@H](C)CN[C@H](C)[C@@H](O)[C@]1(C)O)[C@H](O[C@@H]1O[C@H](C)C[C@H](N(C)C)[C@H]1O)[C@H]2C	1.56 (≈ 2.04 µM)	0.1 (≈ 0.131 µM)	–	> 20	0.78 (≈ 1.02 µM)	–
